One test has as its target IRAK1 (Homo sapiens, UniProt P51617). Put plainly: KINOMEscan kinase profiling, % inhibition at […]. The class given is binding.
Another test concerns the target HCK (Homo sapiens, UniProt P08631). The experiment in a line: SelectScreen Z-Lyte enzymatic kinase assay at ATP Km app. Type of test: biochemical.
For a further test, the target named is BTK (Homo sapiens, UniProt Q06187). The test is described as above. Type of test: biochemical.

Consider 1 compound from article PMC12645583 (British journal of haematology, 2025).

pIC50: −log10 of the molar value.

Chain of IRAK1 (P51617 whole entry): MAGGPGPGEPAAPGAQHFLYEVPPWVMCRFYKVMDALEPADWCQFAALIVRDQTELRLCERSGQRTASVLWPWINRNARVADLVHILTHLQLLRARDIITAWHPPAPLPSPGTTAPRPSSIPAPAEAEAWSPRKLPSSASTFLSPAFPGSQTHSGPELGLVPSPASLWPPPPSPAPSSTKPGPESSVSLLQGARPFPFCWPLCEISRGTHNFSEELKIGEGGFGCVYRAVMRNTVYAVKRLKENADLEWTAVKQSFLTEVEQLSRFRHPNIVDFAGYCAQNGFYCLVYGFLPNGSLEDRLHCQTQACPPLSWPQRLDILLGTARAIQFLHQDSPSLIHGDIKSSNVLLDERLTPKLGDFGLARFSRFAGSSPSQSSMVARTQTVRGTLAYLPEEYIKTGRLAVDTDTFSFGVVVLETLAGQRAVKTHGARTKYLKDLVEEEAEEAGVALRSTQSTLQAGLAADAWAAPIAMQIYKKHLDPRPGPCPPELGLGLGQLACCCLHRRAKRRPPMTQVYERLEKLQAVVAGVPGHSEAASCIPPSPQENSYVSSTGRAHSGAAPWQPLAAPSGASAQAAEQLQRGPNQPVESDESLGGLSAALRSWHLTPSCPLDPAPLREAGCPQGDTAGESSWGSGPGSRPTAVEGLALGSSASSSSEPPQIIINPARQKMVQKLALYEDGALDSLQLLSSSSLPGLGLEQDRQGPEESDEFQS
Chain of BTK (Q06187 2-659): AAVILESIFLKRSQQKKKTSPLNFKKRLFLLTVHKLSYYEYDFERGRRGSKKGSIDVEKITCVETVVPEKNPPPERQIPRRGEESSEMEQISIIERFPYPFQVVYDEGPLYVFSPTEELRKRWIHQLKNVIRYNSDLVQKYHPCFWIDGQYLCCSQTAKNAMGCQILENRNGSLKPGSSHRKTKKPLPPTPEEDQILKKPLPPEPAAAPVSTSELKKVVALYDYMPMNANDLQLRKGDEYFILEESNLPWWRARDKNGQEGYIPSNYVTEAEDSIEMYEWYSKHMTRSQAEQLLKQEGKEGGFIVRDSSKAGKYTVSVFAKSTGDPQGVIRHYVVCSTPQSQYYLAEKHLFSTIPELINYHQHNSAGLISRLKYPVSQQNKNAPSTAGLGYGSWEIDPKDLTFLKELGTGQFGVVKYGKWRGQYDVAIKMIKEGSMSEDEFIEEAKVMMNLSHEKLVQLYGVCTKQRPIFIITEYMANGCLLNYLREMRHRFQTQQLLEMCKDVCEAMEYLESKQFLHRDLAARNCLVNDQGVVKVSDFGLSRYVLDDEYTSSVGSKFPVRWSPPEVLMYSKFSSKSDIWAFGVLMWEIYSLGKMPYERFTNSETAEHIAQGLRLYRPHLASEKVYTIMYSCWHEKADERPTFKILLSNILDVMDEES
Chain of HCK (P08631 2-526): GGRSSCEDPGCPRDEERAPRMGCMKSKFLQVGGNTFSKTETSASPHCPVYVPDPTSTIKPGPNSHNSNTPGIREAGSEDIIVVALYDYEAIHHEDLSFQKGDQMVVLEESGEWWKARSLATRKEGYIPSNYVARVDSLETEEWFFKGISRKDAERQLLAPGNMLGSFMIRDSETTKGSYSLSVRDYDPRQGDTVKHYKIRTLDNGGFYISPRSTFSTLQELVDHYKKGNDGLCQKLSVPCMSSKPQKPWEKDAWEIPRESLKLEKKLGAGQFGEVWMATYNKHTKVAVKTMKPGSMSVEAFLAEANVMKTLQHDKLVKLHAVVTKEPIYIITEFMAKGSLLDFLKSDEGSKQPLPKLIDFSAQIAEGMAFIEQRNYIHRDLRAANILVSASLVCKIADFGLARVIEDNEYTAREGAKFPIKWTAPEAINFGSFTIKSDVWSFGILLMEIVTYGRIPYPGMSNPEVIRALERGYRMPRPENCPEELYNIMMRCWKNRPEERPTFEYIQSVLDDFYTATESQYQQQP

For the compound `C1=C/COCc2cc(ccc2OCCN2CCCC2)Nc2nccc(n2)-c2cccc(c2)COC/1` [pacritinib], at IRAK1, the “%” value was 99.5%. The results for the pIC50 against HCK and at BTK were 6.28 and 6.44, respectively.
